From patent US20240116988A1, “ANTI-ROR1 MACROCYCLIC PEPTIDES AND COMPOSITIONS” (BRISTOL-MYERS SQUIBB COMPANY, priority 2022, published 2024)
Positions of bridges follow the written chain, without caps; N, C: chain ends. Non-standard residues stand in square brackets, D forms with d. Residues, ends and D or L forms follow the SMILES beside them. Bip = N[C@@H](Cc1ccc(-c2ccccc2)cc1)C(=O)O; NMeY = CN[C@@H](Cc1ccc(O)cc1)C(=O)O; NMeF = CN[C@@H](Cc1ccccc1)C(=O)O; Sar = CNCC(=O)O

Biological target: T1, human ROR1 (Homo sapiens, UniProt Q01973)
T1 construct: host or cells: HEK 293T cells, Tet-on system induced with doxycycline
T1 sequence (Q01973 30-937): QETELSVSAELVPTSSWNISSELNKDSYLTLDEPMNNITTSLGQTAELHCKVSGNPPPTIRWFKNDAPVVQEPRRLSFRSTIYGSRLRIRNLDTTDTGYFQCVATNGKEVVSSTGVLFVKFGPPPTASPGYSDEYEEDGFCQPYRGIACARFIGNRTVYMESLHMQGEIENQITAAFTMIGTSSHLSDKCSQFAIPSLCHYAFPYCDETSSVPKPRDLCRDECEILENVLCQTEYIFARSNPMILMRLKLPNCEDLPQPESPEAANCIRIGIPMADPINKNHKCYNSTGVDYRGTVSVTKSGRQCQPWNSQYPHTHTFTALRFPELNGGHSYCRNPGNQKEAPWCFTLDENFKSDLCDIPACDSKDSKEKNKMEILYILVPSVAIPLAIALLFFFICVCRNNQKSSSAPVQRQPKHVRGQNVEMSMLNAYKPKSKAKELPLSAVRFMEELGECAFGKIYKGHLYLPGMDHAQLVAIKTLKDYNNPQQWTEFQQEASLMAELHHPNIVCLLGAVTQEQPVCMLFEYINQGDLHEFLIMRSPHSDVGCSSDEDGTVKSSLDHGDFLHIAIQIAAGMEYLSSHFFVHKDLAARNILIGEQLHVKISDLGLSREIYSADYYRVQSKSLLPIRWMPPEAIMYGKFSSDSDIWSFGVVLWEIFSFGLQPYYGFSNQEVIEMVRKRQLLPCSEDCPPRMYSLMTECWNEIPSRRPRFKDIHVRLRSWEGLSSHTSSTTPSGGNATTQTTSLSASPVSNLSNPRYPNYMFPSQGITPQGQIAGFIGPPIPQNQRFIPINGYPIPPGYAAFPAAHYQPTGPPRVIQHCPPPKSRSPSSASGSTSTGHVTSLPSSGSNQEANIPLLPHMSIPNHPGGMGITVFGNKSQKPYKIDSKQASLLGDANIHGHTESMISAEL
Assay: ROR1 high content cell-based binding assay
Conditions: read-out: ROR1 Binding 293T Human HC Cell Based Assay IC50
Method in brief: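 Doxycycline-induced 293T cells expressing human ROR1, seeded overnight, were treated with compound plus 5-FAM-labeled ROR1-binding probe peptide (30 nM final) for 1 h at 37 °C. After washing and formaldehyde/Hoechst fixation, cell-bound probe fluorescence was read by high-content imaging.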

SMILES	IC50 [nM]
CC(C)C[C@@H]1NC(=O)[C@H](CC(N)=O)NC(=O)[C@H](Cc2ccccc2)N(C)C(=O)CNC(=O)[C@H](Cc2ccc(O)cc2)NC(=O)[C@H](Cc2ccccc2)NC(=O)CSC[C@@H](C(=O)NCC(N)=O)NC(=O)[C@H](Cc2c[nH]c3ccccc23)NC(=O)[C@H](Cc2ccc(O)cc2)NC1=O [Example 1118] ({CH2CO}-FYG[NMeF]NLYWCG-NH2; thioether N-9)	151
CC(C)C[C@@H]1NC(=O)[C@H](CC(N)=O)NC(=O)[C@H](Cc2ccccc2)N(C)C(=O)CNC(=O)[C@H](Cc2ccc(O)cc2)NC(=O)[C@H](Cc2ccc(O)cc2)NC(=O)CSC[C@@H](C(N)=O)NC(=O)[C@H](Cc2c[nH]c3ccccc23)NC(=O)[C@H](Cc2ccc(O)cc2)NC1=O [Example 1120] ({CH2CO}-YYG[NMeF]NLYWC-NH2; thioether N-9)	790
CC(C)C[C@@H]1NC(=O)CNC(=O)[C@H](Cc2ccccc2)N(C)C(=O)CNC(=O)[C@H](Cc2ccc(O)cc2)NC(=O)[C@H](Cc2ccccc2)NC(=O)CSC[C@@H](C(N)=O)NC(=O)[C@H](Cc2c[nH]c3ccccc23)NC(=O)[C@H](Cc2ccc(O)cc2)NC1=O [Example 1121] ({CH2CO}-FYG[NMeF]GLYWC-NH2; thioether N-9)	378
CC(C)C[C@@H]1NC(=O)[C@@H](CCC(N)=O)NC(=O)[C@H](Cc2ccccc2)N(C)C(=O)CNC(=O)[C@H](Cc2ccc(O)cc2)NC(=O)[C@H](Cc2ccccc2)NC(=O)CSC[C@@H](C(N)=O)NC(=O)[C@H](Cc2c[nH]c3ccccc23)NC(=O)[C@H](Cc2ccc(O)cc2)NC1=O [Example 1122] ({CH2CO}-FYG[NMeF][dQ]LYWC-NH2; thioether N-9)	567
CC(C)C[C@@H]1NC(=O)[C@H](CC(N)=O)NC(=O)[C@H](Cc2ccc(O)cc2)N(C)C(=O)CNC(=O)[C@H](Cc2ccc(O)cc2)NC(=O)[C@H](Cc2ccccc2)NC(=O)CSC[C@@H](C(N)=O)NC(=O)[C@H](Cc2c[nH]c3ccccc23)NC(=O)[C@H](Cc2ccc(O)cc2)NC1=O [Example 1123] ({CH2CO}-FYG[NMeY]NLYWC-NH2; thioether N-9)	126
CC(C)C[C@@H]1NC(=O)[C@H](Cc2ccccc2)NC(=O)CSC[C@@H](C(=O)NCC(N)=O)NC(=O)[C@H](C(C)C)NC(=O)[C@H](Cc2ccccc2)N(C)C(=O)[C@H](CC(C)C)NC(=O)[C@H](Cc2c[nH]c3ccccc23)NC(=O)CN(C)C(=O)CNC(=O)[C@H](C(C)C)NC(=O)[C@H](Cc2c[nH]c3ccccc23)NC1=O [Example 1201]	39
CC(C)C[C@@H]1NC(=O)[C@H](Cc2ccccc2)NC(=O)CSC[C@@H](C(N)=O)NC(=O)[C@H](C(C)C)NC(=O)[C@H](Cc2ccccc2)N(C)C(=O)[C@H](CC(C)C)NC(=O)[C@H](Cc2c[nH]c3ccccc23)NC(=O)CN(C)C(=O)CNC(=O)[C@H](C(C)C)NC(=O)[C@H](Cc2c[nH]c3ccccc23)NC1=O [Example 1202] ({CH2CO}-FLWVG[Sar]WL[NMeF]VC-NH2; thioether N-11)	67
CC(C)C[C@@H]1NC(=O)[C@H](Cc2ccccc2)NC(=O)CSC[C@@H](C(N)=O)NC(=O)[C@H](C(C)C)NC(=O)[C@H](Cc2ccccc2)N(C)C(=O)[C@H](CC(C)C)NC(=O)[C@H](Cc2c[nH]c3ccccc23)NC(=O)CN(C)C(=O)CNC(=O)[C@H](C(C)C)NC(=O)[C@H](Cc2c[nH]c3ccccc23)NC1=O [Example 1203] ({CH2CO}-FLWVG[Sar]WL[NMeF]VC-NH2; thioether N-11)	86
CC(C)C[C@@H]1NC(=O)[C@H](Cc2ccccc2)NC(=O)CSC[C@@H](C(N)=O)NC(=O)[C@H](C(C)C)NC(=O)[C@H](Cc2ccccc2)N(C)C(=O)[C@H](CC(C)C)NC(=O)[C@H](Cc2c[nH]c3ccccc23)NC(=O)CN(C)C(=O)CNC(=O)[C@H](C(C)C)NC(=O)[C@H](Cc2ccc(-c3ccccc3)cc2)NC1=O [Example 1204] ({CH2CO}-FL[Bip]VG[Sar]WL[NMeF]VC-NH2; thioether N-11)	228
CC(C)C[C@@H]1NC(=O)[C@H](Cc2ccccc2)NC(=O)CSC[C@@H](C(=O)NCC(N)=O)NC(=O)[C@H](C(C)C)NC(=O)[C@H](Cc2c[nH]c3ccccc23)NC(=O)[C@H](CC(C)C)NC(=O)[C@H](Cc2c[nH]c3ccccc23)NC(=O)CN(C)C(=O)CNC(=O)[C@H](C(C)C)NC(=O)[C@H](Cc2c[nH]c3ccccc23)NC1=O [Example 1205] ({CH2CO}-FLWVG[Sar]WLWVCG-NH2; thioether N-11)	346
